Test results from patent US8513281B1 (priority 1999, dated 2013).
Like-named read-outs stand apart in the source and are kept apart here.

How the values were obtained:
[1] = system: rats with chronic spinal cord injury exhibiting allodynia; test: Intrathecal salicylate for pain: allodynia on light touch in rats with chronic spinal cord injury; type: in vivo, rat; settings: intrathecal via ESOX pump, 60 μl per day; two rats; saline replaced by salicylate
Method: A 1-French silicon tubing was threaded into the intrathecal space from the atlanto-occipital membrane. The intrathecal catheter was connected an ESOX that was implanted subcutaneously. The ESOX pump flowed at a rate of 60 μl per day. Initially, saline was placed in the pumps. At testing on days 2, 12, 14 after pump placement, signs of allodynia were consistently observed when the animals were lightly touched at particular parts of their body (left flank for rat 1 and right shoulder for rat 2). Animals vocalized consistently when these areas were lightly touched. All of the behavioral testing was done by a person who was unaware of the type of drug delivered or the expected effects of the drug. The saline was removed from the pumps and the pumps were refilled with salicylate. […] When the salicylate was removed and replaced with saline, consistent allodynia was observed.

[2] = system: rats with spinal cord injury; test: BBB locomotor test after moderate to severe spinal cord injury; type: in vivo, rat; settings: intrathecal via ESOX pump, 60 μl per day
Method: In this study, twenty-four rats deeply anesthetized rats received a moderate to severe spinal cord injury using a 2-French Fogarty embolectomy catheter. Shortly after injury, a 1-French silicon tubing was threaded into the intrathecal space from the atlanto-occipital membrane. The intrathecal catheter was connected an ESOX that was implanted subcutaneously. The ESOX pump flowed at a rate of 60 μl per day. Animals were randomly assigned to receive saline or salicylate. Animals were tested each week using the BBB locomotor test. All of the behavioral testing was done by a person who was unaware of the type of drug delivered or the expected effects of the drug. […] The average score for the saline treated rats was 0 while the average score for salicylate treated rats was 5.45.

Male Sprague-Dawley rats [3] = settings: rat, in vivo
Male Sprague-Dawley rats [4] = settings: rat, in vivo; remark: listed apart in the source
Male Sprague-Dawley rats [5] = settings: rat, in vivo; remark: listed apart in the source

Row | Molecule | allodynia (vocalization when lightly touched) [1] | functional deficits versus saline [2] | average BBB locomotor score ([2]; started shortly after injury) | colorectal distension visceromotor response threshold (Male Sprague-Dawley rats [3]) | duration of effects (Male Sprague-Dawley rats [3]) | onset of response to the bolus (Male Sprague-Dawley rats [3]) | effect on flinches/licks of the hindpaw (formalin test) (Male Sprague-Dawley rats [4]) | duration of effects (Male Sprague-Dawley rats [5]) | onset of response to the bolus (Male Sprague-Dawley rats [5]) | tail flick latency response (Male Sprague-Dawley rats [5])
1 | O=C(O)c1ccccc1O [salicylate] | no evidence of allodynia was observed | on average less functional deficits | 5.45 | – | – | – | – | – | – | –
2 | choline-magnesium trisalicylate [Choline-Mg-Salicylate] | – | – | – | dose-dependent | not long-lasting | rapid in onset | produced an effect | not long-lasting | rapid in onset | dose-dependent
